Reference: ChEMBL document CHEMBL3886897, “Macrocyclic indole derivatives useful as hepatitis C virus inhibitors” (2016)

Key:
[1] = biological target: RNA-directed RNA polymerase (Hepacivirus hominis) (UniProt O39930)
[2] = biological target: RNA-directed RNA polymerase (Hepacivirus hominis) (UniProt O39930); remark: listed apart in the source
[3] = biological target: RNA-directed RNA polymerase (Hepacivirus hominis) (UniProt O39930); remark: listed apart in the source
[4] = biological target: RNA-directed RNA polymerase (Hepacivirus hominis) (UniProt O39930); remark: listed apart in the source
[5] = biological target: RNA-directed RNA polymerase (Hepacivirus hominis) (UniProt O39930); remark: listed apart in the source
[6] = biological target: RNA-directed RNA polymerase (Hepacivirus hominis) (UniProt O39930); remark: listed apart in the source
[7] = biological target: RNA-directed RNA polymerase (Hepacivirus hominis) (UniProt O39930); remark: listed apart in the source
[8] = biological target: RNA-directed RNA polymerase (Hepacivirus hominis) (UniProt O39930); remark: listed apart in the source
[9] = biological target: RNA-directed RNA polymerase (Hepacivirus hominis) (UniProt O39930); remark: listed apart in the source
[10] = biological target: RNA-directed RNA polymerase (Hepacivirus hominis) (UniProt O39930); remark: listed apart in the source

Sequence of RNA-directed RNA polymerase (Hepacivirus hominis) (O39930 1-591): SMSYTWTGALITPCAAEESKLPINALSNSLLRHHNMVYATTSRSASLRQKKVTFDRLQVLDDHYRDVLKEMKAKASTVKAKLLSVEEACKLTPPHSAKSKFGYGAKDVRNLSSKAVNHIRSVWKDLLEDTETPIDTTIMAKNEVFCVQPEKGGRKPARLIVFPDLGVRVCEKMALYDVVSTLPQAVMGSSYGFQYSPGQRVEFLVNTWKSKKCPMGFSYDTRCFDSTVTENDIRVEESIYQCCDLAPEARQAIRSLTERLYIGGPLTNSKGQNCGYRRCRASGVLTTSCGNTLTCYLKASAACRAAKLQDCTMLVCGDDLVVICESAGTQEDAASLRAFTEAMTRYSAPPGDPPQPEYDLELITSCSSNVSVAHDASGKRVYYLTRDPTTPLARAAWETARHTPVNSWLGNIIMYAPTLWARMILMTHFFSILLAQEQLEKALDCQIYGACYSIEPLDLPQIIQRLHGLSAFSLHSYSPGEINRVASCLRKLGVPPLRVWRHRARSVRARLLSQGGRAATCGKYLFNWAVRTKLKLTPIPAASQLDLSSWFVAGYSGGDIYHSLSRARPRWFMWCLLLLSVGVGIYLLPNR

SMILES	k off [1]	also measured
CN1CCCCCNC(=O)C2=Cc3ccc(Cl)cc3-c3c(C4CCCCC4)c4ccc(cc4n3C2)C(=O)NS1(=O)=O	0.0038 s⁻¹	
COc1ccc2c(c1)C(C)=C1Cn3c-2c(C2CCCCC2)c2ccc(cc23)C(=O)NS(=O)(=O)N(C)CCCCN(C)C1=O	0.00016 s⁻¹	
COc1ccc2c(c1)C=C1Cn3c-2c(C2CCCCC2)c2ccc(cc23)C(=O)NS(=O)(=O)N(C)CCOCCN(C)C1=O	9e-05 s⁻¹	k off [2]: 0.0001 s⁻¹; k off [3]: 0.022 s⁻¹; k off [4]: 0.00097 s⁻¹; k off [5]: 0.022 s⁻¹; k off [6]: 0.00084 s⁻¹; k off [7]: 0.00015 s⁻¹; k off [8]: 0.00015 s⁻¹; k off [9]: 0.00013 s⁻¹; k off [10]: 7.6e-05 s⁻¹
COc1ccc2c(c1)C=C1Cn3c-2c(C2CCCCC2)c2ccc(cc23)C(=O)NS(=O)(=O)N(C(C)C)CCCCN(C)C1=O	6.6e-05 s⁻¹	
COc1ccc2c(c1)C=C1Cn3c-2c(C2CCCCC2)c2ccc(cc23)C(=O)NS(=O)(=O)N(C)CCCCN(C)C1=O	4.8e-05 s⁻¹	
COc1ccc2c(c1)C(C)=C1Cn3c-2c(C2CCCCC2)c2ccc(cc23)C(=O)NS(=O)(=O)N(C)CCOCCN(C)C1=O	3.6e-05 s⁻¹	
CN1CCCCN(C)S(=O)(=O)NC(=O)c2ccc3c(C4CCCCC4)c4n(c3c2)CC(=Cc2ccc(Cl)cc2-4)C1=O	0.0037 s⁻¹	
COc1ccc2c(c1)C=C1Cn3c-2c(C2CCCCC2)c2ccc(cc23)C(=O)NS(=O)(=O)NCCCCN(C)C1=O	0.00031 s⁻¹	
COc1ccc2c(c1)C=C1Cn3c-2c(C2CCCCC2)c2ccc(cc23)C(=O)NS(=O)(=O)N(C)CCCCNC1=O	4.1e-05 s⁻¹	
